pIC50: −log10 of the molar value.
Assays:
PPARα = target: T1, PPARα (Homo sapiens, UniProt Q07869); test: PPARα radioligand binding assay (scintillation proximity); conditions: GST-PPARα-LBD fusion protein on SPA beads
T1 construct: PPARα (aa 167 to 469); made in house; host or cells: E. coli BL21 (pLysS)
T1 sequence (Q07869 167-468 limits assumed): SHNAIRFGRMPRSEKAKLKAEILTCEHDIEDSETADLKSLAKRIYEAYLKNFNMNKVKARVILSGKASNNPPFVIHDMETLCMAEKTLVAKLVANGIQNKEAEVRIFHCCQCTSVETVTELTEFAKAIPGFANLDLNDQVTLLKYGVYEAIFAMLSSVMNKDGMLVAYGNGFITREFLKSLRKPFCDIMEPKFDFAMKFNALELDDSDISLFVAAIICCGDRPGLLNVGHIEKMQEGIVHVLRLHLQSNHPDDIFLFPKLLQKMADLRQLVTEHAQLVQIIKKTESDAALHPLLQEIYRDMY
Text: (§1) Background information on the performed assays can be found in: Nichols J S et al. “Development of a scintillation proximity assay for peroxisome proliferator-activated receptor gamma ligand binding domain”, (1998) Anal. Biochem. 257: 112-119.
Full-length cDNA clones for humans PPARδ and PPARα and mouse PPARγ were obtained by RT-PCR from human adipose and mouse liver cRNA, respectively, cloned into plasmid vectors and verified by DNA sequencing. Bacterial and mammalian expression vectors were constructed to produce glutathione-s-transferase (GST) and Gal4 DNA binding domain proteins fused to the ligand binding domains (LBD) of PPARδ (aa 139 to 442), PPARγ (aa 174 to 476) and PPARα (aa 167 to 469). To accomplish this, the portions of the cloned sequences encoding the LBDs were amplified from the full-length clones by PCR and then subcloned into the plasmid vectors. Final clones were verified by DNA sequence analysis. […]
PPARα receptor binding was assayed in TKE50 (50 mM Tris-HCl, pH 8, 50 mM KCl, 2 mM EDTA, 0.1 mg/ml fatty acid-free BSA and 10 mM DTT). […] All binding assays were performed in 96 well plates and the amount of bound ligand measured on a Packard TopCount using OptiPlates (Packard). Nonspecific binding was determined in the presence of 10^−4 M unlabelled compound. […]

PPARδ = target: T2, PPARδ (Homo sapiens, UniProt Q03181); test: PPARδ radioligand binding assay (scintillation proximity); conditions: GST-PPARδ-LBD fusion protein on SPA beads
T2 construct: PPARδ (aa 139 to 442); made in house; host or cells: E. coli BL21 (pLysS)
T2 sequence (Q03181 139-441 limits assumed): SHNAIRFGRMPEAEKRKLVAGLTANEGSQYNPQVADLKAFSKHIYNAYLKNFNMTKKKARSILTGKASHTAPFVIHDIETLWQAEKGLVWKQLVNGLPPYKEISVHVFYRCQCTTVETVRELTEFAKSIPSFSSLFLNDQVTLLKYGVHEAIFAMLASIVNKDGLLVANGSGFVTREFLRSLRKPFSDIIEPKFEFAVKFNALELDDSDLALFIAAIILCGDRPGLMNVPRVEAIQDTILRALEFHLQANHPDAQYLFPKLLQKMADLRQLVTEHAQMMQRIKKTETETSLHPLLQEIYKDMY
Text: as §1
(§2) Full-length cDNA clones for humans PPARδ and PPARα and mouse PPARγ were obtained by RT-PCR from human adipose and mouse liver cRNA, respectively, cloned into plasmid vectors and verified by DNA sequencing. Bacterial and mammalian expression vectors were constructed to produce glutathione-s-transferase (GST) and Gal4 DNA binding domain proteins fused to the ligand binding domains (LBD) of PPARδ (aa 139 to 442), PPARγ (aa 174 to 476) and PPARα (aa 167 to 469). To accomplish this, the portions of the cloned sequences encoding the LBDs were amplified from the full-length clones by PCR and then subcloned into the plasmid vectors. Final clones were verified by DNA sequence analysis.
(§3) Induction, expression, and purification of GST-LBD fusion proteins were performed in E. coli strain BL21 (pLysS) cells by standard methods (Ref: Current Protocols in Molecular Biology, Wiley Press, edited by Ausubel et al.).
(§4) Radioligand Binding Assay
PPARδ receptor binding was assayed in HNM10 (50 mM Hepes, pH 7.4, 10 mM NaCl, 5 mM MgCl2, 0.15 mg/ml fatty acid-free BSA and 15 mM DTT). For each 96 well reaction a 500 ng equivalent of GST-PPARδ-LBD fusion protein and radioligand, e.g. 20000 dpm {2-methyl-4-[4-methyl-2-(4-trifluoromethyl-phenyl)-thiazol-5-yl-ditritiomethylsulfanyl]-phenoxy}-acetic acid, was bound to 10 μg SPA beads (PharmaciaAmersham) in a final volume of 50 μl by shaking. The resulting slurry was incubated for 1 h at RT and centrifuged for 2 min at 1300 g. […] Radioligand was added and the reaction incubated at RT for 1 h and scintillation proximity counting performed in the presence of test compounds was determined. All binding assays were performed in 96 well plates and the amount of bound ligand was measured on a Packard TopCount using OptiPlates (Packard). […]

PPARγ = target: T3, PPARγ (Mus musculus, UniProt P37238); test: PPARγ radioligand binding assay (scintillation proximity); conditions: GST-PPARγ-LBD fusion protein on SPA beads
T3 construct: PPARγ (aa 174 to 476); made in house; host or cells: E. coli BL21 (pLysS)
T3 sequence (P37238 174-475 isoform P37238-2): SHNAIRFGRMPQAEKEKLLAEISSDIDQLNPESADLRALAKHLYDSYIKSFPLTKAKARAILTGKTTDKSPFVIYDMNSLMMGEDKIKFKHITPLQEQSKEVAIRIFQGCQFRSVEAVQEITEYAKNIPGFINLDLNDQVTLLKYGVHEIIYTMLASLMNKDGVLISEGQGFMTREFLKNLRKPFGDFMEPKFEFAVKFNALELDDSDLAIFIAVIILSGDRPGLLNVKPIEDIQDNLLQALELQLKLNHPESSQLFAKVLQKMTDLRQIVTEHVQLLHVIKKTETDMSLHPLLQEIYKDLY
Text: as §1, §2, §3, §4
PPARγ receptor binding was assayed in TKE50 (50 mM Tris-HCl, pH 8, 50 mM KCl, 2 mM EDTA, 0.1 mg/ml fatty acid-free BSA and 10 mM DTT). For each 96 well reaction an 140 ng equivalent of GST-PPARγ-LBD fusion protein was bound to 10 μg SPA beads (PharmaciaAmersham) in a final volume of 50 ul by shaking. The resulting slurry was incubated for 1 h at RT and centrifuged for 2 min at 1300 g. The supernatant containing unbound protein was removed and the semidry pellet containig the recptor-coated beads was resolved in 50 μl of TKE. […] All binding assays were performed in 96 well plates and the amount of bound ligand measured on a Packard TopCount using OptiPlates (Packard). Nonspecific binding was determined in the presence of 10^−4 M unlabelled compound. […]

| pIC50 (PPARα) | pIC50 (PPARδ) | pIC50 (PPARγ) | Compound |
| --- | --- | --- | --- |
| 5.59 | 8.40 | ≤ 5.00 | Cn1nc(-c2ccc(C(F)(F)F)cc2)c(Br)c1COc1ccc2ccn(CC(=O)O)c2c1 [Example 8, {6-[4-Bromo-2-methyl-5-(4-trifluoromethyl-phenyl)-2H-pyrazol-3-ylmethoxy]-indol-1-yl}-acetic acid] |
| 7.89 | 7.37 | ≤ 5.00 | Cn1nc(-c2ccc(OC(F)(F)F)cc2)cc1CCCOc1ccc2ccn(CC(=O)O)c2c1 [Example 20, (6-{3-[2-Methyl-5-(4-trifluoromethoxy-phenyl)-2H-pyrazol-3-yl]-propoxy}-indol-1-yl)-acetic acid] |
| – | 6.85 | ≤ 5.00 | Cc1c(-c2ccc(Cl)cc2)nn(C)c1COc1ccc2ccn(CC(=O)O)c2c1 [Example 2, {6-[5-(4-Chloro-phenyl)-2,4-dimethyl-2H-pyrazol-3-ylmethoxy]-indol-1-yl}-acetic acid] |

From patent US7265149B2, “Indolyl derivatives” (Hoffmann-La Roche Inc., priority 2004, dated 2007)
